These results are taken from BindingDB's records for doi:10.1021/jm00078a018 (Merck Research Laboratories, 1994).

This assay in a line: Inhibition of binding of [125I]-CCK-8 to the cholecystokinin type B receptor.
What is called IC50 is the concentration needed to halve the response being measured. A lower IC50 goes with inhibition by little substance. `CN1C(=O)C(NC(=O)Nc2ccc(C(F)(F)F)cc2)N=C(c2ccccc2)c2ccccc21` (configuration not stated) [1-(1-Methyl-2-oxo-5-phenyl-2,3-dihydro-1H-benzo[e][1,4]diazepin-3-yl)-3-(4-trifluoromethyl-phenyl)-urea] showed an IC50 of 5.7 nM.
The same measure for `CN1C(=O)C(NC(=O)Nc2cccc3ccccc23)N=C(c2ccccc2)c2ccccc21` (configuration not stated) [1-(1-Methyl-2-oxo-5-phenyl-2,3-dihydro-1H-benzo[e][1,4]diazepin-3-yl)-3-naphthalen-1-yl-urea]: 79 nM; for `CN1C(=O)C(NC(=O)Nc2ccccc2)N=C(c2ccccc2)c2ccccc21` (configuration not stated) [1-(1-Methyl-2-oxo-5-phenyl-2,3-dihydro-1H-benzo[e][1,4]diazepin-3-yl)-3-phenyl-urea]: 32 nM.
Next, `CN1C(=O)C(NC(=O)Nc2ccccn2)N=C(c2ccccc2)c2ccccc21` (configuration not stated) [1-(1-Methyl-2-oxo-5-phenyl-2,3-dihydro-1H-benzo[e][1,4]diazepin-3-yl)-3-pyridin-2-yl-urea]: 337 nM; `CN1C(=O)C(NC(=O)Nc2cccnc2)N=C(c2ccccc2)c2ccccc21` (configuration not stated) [1-(1-Methyl-2-oxo-5-phenyl-2,3-dihydro-1H-benzo[e][1,4]diazepin-3-yl)-3-pyridin-3-yl-urea]: 310 nM.
In the case of `CN1C(=O)C(NC(=O)Nc2ccncc2)N=C(c2ccccc2)c2ccccc21` (configuration not stated) [1-(1-Methyl-2-oxo-5-phenyl-2,3-dihydro-1H-benzo[e][1,4]diazepin-3-yl)-3-pyridin-4-yl-urea], the IC50 stood at 1070 nM.
Next, `CN1C(=O)C(NC(=O)Nc2ccc3ccccc3n2)N=C(c2ccccc2)c2ccccc21` (configuration not stated) [1-(1-Methyl-2-oxo-5-phenyl-2,3-dihydro-1H-benzo[e][1,4]diazepin-3-yl)-3-quinolin-2-yl-urea]: 26 nM; `CN1C(=O)C(NC(=O)Nc2ccc3ncccc3c2)N=C(c2ccccc2)c2ccccc21` (configuration not stated) [1-(1-Methyl-2-oxo-5-phenyl-2,3-dihydro-1H-benzo[e][1,4]diazepin-3-yl)-3-quinolin-6-yl-urea]: 52 nM; `Cc1cccc(NC(=O)NC2N=C(c3ccccc3)c3cnccc3N(C)C2=O)c1` (configuration not stated) [1-(1-Methyl-2-oxo-5-phenyl-2,3-dihydro-1H-pyrido[4,3-e][1,4]diazepin-3-yl)-3-m-tolyl-urea]: 632 nM.
Next, `Cc1cccc(NC(=O)NC2N=C(c3cccnc3)c3ccccc3N(C)C2=O)c1` (configuration not stated) [1-(1-Methyl-2-oxo-5-pyridin-3-yl-2,3-dihydro-1H-benzo[e][1,4]diazepin-3-yl)-3-m-tolyl-urea]: 92 nM; `Cc1cccc(NC(=O)NC2N=C(c3ccncc3)c3ccccc3N(C)C2=O)c1` (configuration not stated) [1-(1-Methyl-2-oxo-5-pyridin-4-yl-2,3-dihydro-1H-benzo[e][1,4]diazepin-3-yl)-3-m-tolyl-urea]: 52 nM; `CN1C(=O)C(NC(=O)Nc2ccc(Cl)cc2Cl)N=C(c2ccccc2)c2ccccc21` (configuration not stated) [1-(2,4-Dichloro-phenyl)-3-(1-methyl-2-oxo-5-phenyl-2,3-dihydro-1H-benzo[e][1,4]diazepin-3-yl)-urea]: 220 nM.
The same measure for `COc1ccccc1NC(=O)NC1N=C(c2ccccc2)c2ccccc2N(C)C1=O` (configuration not stated) [1-(2-Methoxy-phenyl)-3-(1-methyl-2-oxo-5-phenyl-2,3-dihydro-1H-benzo[e][1,4]diazepin-3-yl)-urea]: 1200 nM; for `COC(=O)[C@H]1CCCN1OC(=O)CN1C(=O)C(NC(=O)Nc2cccc(OC)c2)N=C(c2ccccc2)c2ccccc21` (some centres not stated) [1-(2-{3-[3-(3-Methoxy-phenyl)-ureido]-2-oxo-5-phenyl-2,3-dihydro-benzo[e][1,4]diazepin-1-yl}-acetoxy)-pyrrolidine-2-carboxylic acid methyl ester]: 9.7 nM; for `CN1C(=O)C(NC(=O)Nc2ccc(Cl)c(Cl)c2)N=C(c2ccccc2)c2ccccc21` (configuration not stated) [1-(3,4-Dichloro-phenyl)-3-(1-methyl-2-oxo-5-phenyl-2,3-dihydro-1H-benzo[e][1,4]diazepin-3-yl)-urea]: 67 nM.
Regarding `Cc1ccc(NC(=O)NC2N=C(c3ccccc3)c3ccccc3N(C)C2=O)cc1C` (configuration not stated) [1-(3,4-Dimethyl-phenyl)-3-(1-methyl-2-oxo-5-phenyl-2,3-dihydro-1H-benzo[e][1,4]diazepin-3-yl)-urea], the IC50 is 22 nM.
Next, `COc1cc(NC(=O)NC2N=C(c3ccccc3)c3ccccc3N(C)C2=O)cc(OC)c1` (configuration not stated) [1-(3,5-Dimethoxy-phenyl)-3-(1-methyl-2-oxo-5-phenyl-2,3-dihydro-1H-benzo[e][1,4]diazepin-3-yl)-urea]: 2300 nM; `Cc1cc(C)cc(NC(=O)NC2N=C(c3ccccc3)c3ccccc3N(C)C2=O)c1` (configuration not stated) [1-(3,5-Dimethyl-phenyl)-3-(1-methyl-2-oxo-5-phenyl-2,3-dihydro-1H-benzo[e][1,4]diazepin-3-yl)-urea]: 267 nM; `CC(=O)c1cccc(NC(=O)NC2N=C(c3ccccc3)c3ccccc3N(C)C2=O)c1` (configuration not stated) [1-(3-Acetyl-phenyl)-3-(1-methyl-2-oxo-5-phenyl-2,3-dihydro-1H-benzo[e][1,4]diazepin-3-yl)-urea]: 4.8 nM.
The same measure for `CN1C(=O)C(NC(=O)Nc2cccc(Br)c2)N=C(c2ccccc2)c2ccccc21` (configuration not stated) [1-(3-Bromo-phenyl)-3-(1-methyl-2-oxo-5-phenyl-2,3-dihydro-1H-benzo[e][1,4]diazepin-3-yl)-urea]: 5 nM; for `CN1C(=O)C(NC(=O)Nc2cccc(Cl)c2)N=C(c2ccccc2)c2ccccc21` (configuration not stated) [1-(3-Chloro-phenyl)-3-(1-methyl-2-oxo-5-phenyl-2,3-dihydro-1H-benzo[e][1,4]diazepin-3-yl)-urea]: 9.8 nM; for `CN1C(=O)C(NC(=O)Nc2cccc(C#N)c2)N=C(c2ccccc2)c2ccccc21` (configuration not stated) [1-(3-Cyano-phenyl)-3-(1-methyl-2-oxo-5-phenyl-2,3-dihydro-1H-benzo[e][1,4]diazepin-3-yl)-urea]: 27 nM.
The molecule `C#Cc1cccc(NC(=O)NC2N=C(c3ccccc3)c3ccccc3N(C)C2=O)c1` (configuration not stated) [1-(3-Ethynyl-phenyl)-3-(1-methyl-2-oxo-5-phenyl-2,3-dihydro-1H-benzo[e][1,4]diazepin-3-yl)-urea] returned an IC50 of 22 nM.
Take `CN1C(=O)C(NC(=O)Nc2cccc(F)c2)N=C(c2ccccc2)c2ccccc21` (configuration not stated) [1-(3-Fluoro-phenyl)-3-(1-methyl-2-oxo-5-phenyl-2,3-dihydro-1H-benzo[e][1,4]diazepin-3-yl)-urea]: the half-maximal inhibitory concentration (IC50) worked out at 54 nM.
Next, `COc1cccc(NC(=O)NC2N=C(c3ccccc3)c3ccccc3N(C)C2=O)c1` (configuration not stated) [1-(3-Methoxy-phenyl)-3-(1-methyl-2-oxo-5-phenyl-2,3-dihydro-1H-benzo[e][1,4]diazepin-3-yl)-urea]: 3 nM; `COc1cccc(NC(=O)NC2N=C(c3ccccc3)c3ccccc3N(CC(=O)N3CCCC3)C2=O)c1` (configuration not stated) [1-(3-Methoxy-phenyl)-3-[2-oxo-1-(2-oxo-2-pyrrolidin-1-yl-ethyl)-5-phenyl-2,3-dihydro-1H-benzo[e][1,4]diazepin-3-yl]-urea]: 0.24 nM.
The same measure for `COc1cccc(NC(=O)NC2N=C(c3ccccc3)c3ccccc3N(CC(=O)N3CCN(C)CC3)C2=O)c1` (configuration not stated) [1-(3-Methoxy-phenyl)-3-{1-[2-(4-methyl-piperazin-1-yl)-2-oxo-ethyl]-2-oxo-5-phenyl-2,3-dihydro-1H-benzo[e][1,4]diazepin-3-yl}-urea]: 4.4 nM; for `CN1C(=O)C(NC(=O)Nc2ccc(Br)cc2)N=C(c2ccccc2)c2ccccc21` (configuration not stated) [1-(4-Bromo-phenyl)-3-(1-methyl-2-oxo-5-phenyl-2,3-dihydro-1H-benzo[e][1,4]diazepin-3-yl)-urea]: 48 nM.
The same measure for `O=C(Nc1ccc(Cl)cc1)NC1N=C(c2ccccc2)c2ccccc2NC1=O` (configuration not stated) [1-(4-Chloro-phenyl)-3-(2-oxo-5-phenyl-2,3-dihydro-1H-benzo[e][1,4]diazepin-3-yl)-urea]: 270 nM; for `CN1C(=O)[C@H](NC(=O)Nc2ccc(Cl)cc2)N=C(c2ccccc2)c2ccccc21` [1-(4-Chloro-phenyl)-3-((R)-1-methyl-2-oxo-5-phenyl-2,3-dihydro-1H-benzo[e][1,4]diazepin-3-yl)-urea]: 20 nM; for `CN1C(=O)[C@@H](NC(=O)Nc2ccc(Cl)cc2)N=C(c2ccccc2)c2ccccc21` [1-(4-Chloro-phenyl)-3-((S)-1-methyl-2-oxo-5-phenyl-2,3-dihydro-1H-benzo[e][1,4]diazepin-3-yl)-urea]: 1100 nM.
`O=C(Nc1ccc(Cl)cc1)NC1N=C(c2ccccc2)c2ccccc2N(C[C@@H](O)CO)C1=O` (some centres not stated) [1-(4-Chloro-phenyl)-3-[1-(2,3-dihydroxy-propyl)-2-oxo-5-phenyl-2,3-dihydro-1H-benzo[e][1,4]diazepin-3-yl]-urea] came in with an IC50 of 104 nM.
`O=C(Nc1ccc(Cl)cc1)NC1N=C(c2ccccc2)c2ccccc2N(C[C@@H](O)CN2CCCC2)C1=O` (some centres not stated) [1-(4-Chloro-phenyl)-3-[1-(2-hydroxy-3-pyrrolidin-1-yl-propyl)-2-oxo-5-phenyl-2,3-dihydro-1H-benzo[e][1,4]diazepin-3-yl]-urea] registered an IC50 of 300 nM.
Next, `CCN(CC)C[C@H](O)CN1C(=O)C(NC(=O)Nc2ccc(Cl)cc2)N=C(c2ccccc2)c2ccccc21` (some centres not stated) [1-(4-Chloro-phenyl)-3-[1-(3-diethylamino-2-hydroxy-propyl)-2-oxo-5-phenyl-2,3-dihydro-1H-benzo[e][1,4]diazepin-3-yl]-urea]: 410 nM.
The same measure for `O=C(Nc1ccc(Cl)cc1)NC1N=C(c2ccccc2)c2ccccc2N(Cc2nnn[nH]2)C1=O` (configuration not stated) [1-(4-Chloro-phenyl)-3-[2-oxo-5-phenyl-1-(1H-tetrazol-5-ylmethyl)-2,3-dihydro-1H-benzo[e][1,4]diazepin-3-yl]-urea]: 490 nM; for `CN1CCN(C(=O)CN2C(=O)C(NC(=O)Nc3ccc(Cl)cc3)N=C(c3ccccc3)c3ccccc32)CC1` (configuration not stated) [1-(4-Chloro-phenyl)-3-{1-[2-(4-methyl-piperazin-1-yl)-2-oxo-ethyl]-2-oxo-5-phenyl-2,3-dihydro-1H-benzo[e][1,4]diazepin-3-yl}-urea]: 0.8 nM; for `CN1C(=O)C(NC(=O)Nc2ccc(F)cc2)N=C(c2ccccc2)c2ccccc21` (configuration not stated) [1-(4-Fluoro-phenyl)-3-(1-methyl-2-oxo-5-phenyl-2,3-dihydro-1H-benzo[e][1,4]diazepin-3-yl)-urea]: 66 nM.
